Experimental data as given in patent publication US11241436B2, “Autophagy inducers for treatment of CNS conditions” (Northwestern University, priority 2017, dated 2022).

Columns and labels:
[1] = system: HEK293 cells stably expressing APP; assay: Dot blot of secreted Aβ42 in conditioned media of APP-HEK293 cells; assay type: cell-based, human
Protocol: Cells were transfected with non-targeting control (NC) or ATG7 siRNA 24 h prior to ML246 treatment. Results are quantified from 4 independent experiments.
In addition to Becn2^F121A-mediated genetic activation of autophagy, it was decided to further study whether stimulating autophagy pharmacologically is also protective against neurodegenerative progression. A brain-penetrable autophagy-inducing small molecule ML246 (metarrestin) was recently identified, and analyzed its effects on the clearance of aggregate-prone proteins in vitro and in vivo. For in vitro analyses, the HEK293 cell line stably expressing APP (APP-HEK293) was utilized, in which the produced Aβ molecules are efficiently secreted, to study the effect of ML246 on amyloid metabolism. […] In addition, cultured WT primary cortical neurons treated with the conditioned media from ML246-treated APP-HEK293 cells underwent a lower level of apoptotic cell death than those treated with media from vehicle-treated APP-HEK293 cells (FIG. 18B).
Dot blot assay. […] Protein concentration was quantified using BCA Assay (Pierce). […] The membrane was stained with Ponceau S, and the dot blot signal on the membrane was detected by immunostaining with Aβ42 antibody (Invitrogen, 700254, 1:1000) and HRP-conjugated secondary antibody (Santa Cruz Biotechnology, sc2004, 1:2000). […]

mouse models of AD = conditions: cited from earlier work

N=c1c2c(-c3ccccc3)c(-c3ccccc3)n(Cc3ccccc3)c2ncn1[C@H]1CC[C@H](O)CC1 [ML246]
level of secreted Aβ in the conditioned media ([1]; APP-HEK293 cells, 24 h): significantly reduced
ML246-mediated reduction of secreted Aβ42 ([1]; siRNA knockdown of ATG7): reversed

CC(C)=CCC[C@](C)(O)[C@H]1CC[C@]2(C)[C@@H]1[C@H](O)C[C@@H]1[C@@]3(C)CC[C@H](O)C(C)(C)[C@@H]3[C@@H](O[C@@H]3O[C@H](CO)[C@@H](O)[C@H](O)[C@H]3O[C@@H]3O[C@@H](C)[C@H](O)[C@@H](O)[C@H]3O)C[C@]12C [Rg2, ginsenoside Rg2]
amyloid burden and memory deficit (mouse models of AD): reduces amyloid burden and memory deficit
